Assay results published in patent US10563263B2, “Genetic polymorphisms associated with statin response and cardiovascular diseases, methods of detection and uses thereof” (CELERA CORPORATION, priority 2010, dated 2020).

Test system: revascularization, unstable angina requiring hospitalization, MI, all causes of death, or stroke
Test: PROVE IT-TIMI 22: SNP by treatment interaction (high-dose atorvastatin vs standard-dose pravastatin), logistic regression (synergy index), primary composite endpoint
Type: in vivo, human
Conditions: for OR: PROVEIT

SMILES: CC(C)c1c(C(=O)Nc2ccccc2)c(-c2ccccc2)c(-c2ccc(F)cc2)n1CC[C@@H](O)C[C@@H](O)CC(=O)O [Atorvastatin, atorvastatin]
- OR (marker rs13129010, caseonly, model dom, End-point CHD, atorvastatin vs pravastatin): 1.39
- OR (marker rs13150189, caseonly, model dom, End-point CVD, atorvastatin vs pravastatin): 1.36
- OR (marker rs16934059, cohort, model dom, End-point CHD, atorvastatin vs pravastatin): 0.65
- OR (marker rs17002013, cohort, model dom, End-point CVD, atorvastatin vs pravastatin): 1.38
- OR (marker rs17688430, caseonly, model add, End-point CVD, atorvastatin vs pravastatin): 0.77
- OR (marker rs17821383, caseonly, model rec, End-point CHD, atorvastatin vs pravastatin): 0.35
- OR (rs4773, caseonly, dom, CVD): 0.68
- OR (rs475420, caseonly, dom, CVD): 1.57
- OR (rs1045916, caseonly, add, CHD): 0.79
- OR (rs7067780, caseonly, dom, CVD): 1.41
- OR (rs9906737, caseonly, dom, CHD): 0.53
- OR (rs17644708, caseonly, rec, CVD): 0.34
- OR (SNP x treatment interaction) (rs742827, allele A, ADD, Imputed, atorvastatin vs pravastatin): 1.396
- OR (SNP x treatment interaction) (rs879961, allele T, ADD, Imputed, atorvastatin vs pravastatin): 1.178
- OR (SNP x treatment interaction) (rs906353, allele A, DOM, Imputed, atorvastatin vs pravastatin): 1.22
- OR (SNP x treatment interaction) (rs915491, allele C, DOM, Imputed, atorvastatin vs pravastatin): 1.329
- OR (SNP x treatment interaction) (rs915493, allele T, DOM, Imputed, atorvastatin vs pravastatin): 1.329
- OR (SNP x treatment interaction) (rs915494, allele A, ADD, Imputed, atorvastatin vs pravastatin): 1.399
- OR (SNP x treatment interaction) (rs915494, allele A, DOM, Imputed, atorvastatin vs pravastatin): 1.486
- OR (SNP x treatment interaction) (rs917295, allele G, DOM, Imputed, atorvastatin vs pravastatin): 0.5934
- OR (SNP x treatment interaction) (rs966583, allele A, ADD, Imputed, atorvastatin vs pravastatin): 0.7596
- OR (SNP x treatment interaction) (rs966583, allele A, DOM, Imputed, atorvastatin vs pravastatin): 0.6781
- OR (SNP x treatment interaction) (rs7180245, allele A, REC, Imputed, atorvastatin vs pravastatin): 1.965
- OR (SNP x treatment interaction) (rs7283476, allele T, ADD, Imputed, atorvastatin vs pravastatin): 0.413
- OR (SNP x treatment interaction) (rs7283476, allele T, DOM, Imputed, atorvastatin vs pravastatin): 0.3545
- OR (SNP x treatment interaction) (rs7298255, allele A, ADD, Imputed, atorvastatin vs pravastatin): 0.7433
- OR (SNP x treatment interaction) (rs7298255, allele A, DOM, Imputed, atorvastatin vs pravastatin): 0.74
- OR (SNP x treatment interaction) (rs7392620, allele C, ADD, Imputed, atorvastatin vs pravastatin): 0.6521
- OR (SNP x treatment interaction) (rs7446891, allele G, DOM, Imputed, atorvastatin vs pravastatin): 0.5934
- OR (SNP x treatment interaction) (rs7448641, allele C, ADD, Imputed, atorvastatin vs pravastatin): 0.9741
- OR (SNP x treatment interaction) (rs7448641, allele C, DOM, Imputed, atorvastatin vs pravastatin): 1.136
- OR (SNP x treatment interaction) (rs7499402, allele A, ADD, Genotyped, atorvastatin vs pravastatin): 2.08
- OR (SNP x treatment interaction) (rs7529851, allele A, ADD, Imputed, atorvastatin vs pravastatin): 0.7324
- OR (SNP x treatment interaction) (rs7573951, allele G, ADD, Imputed, atorvastatin vs pravastatin): 1.009
- OR (SNP x treatment interaction) (rs7599198, allele T, DOM, Imputed, atorvastatin vs pravastatin): 0.9895
- OR (SNP x treatment interaction) (rs7607712, allele T, ADD, Imputed, atorvastatin vs pravastatin): 1.357
- OR (SNP x treatment interaction) (rs7607712, allele T, DOM, Imputed, atorvastatin vs pravastatin): 1.496
- OR (SNP x treatment interaction) (rs7621663, allele G, REC, Imputed, atorvastatin vs pravastatin): 0.8874
- OR (SNP x treatment interaction) (rs7626584, allele G, ADD, Imputed, atorvastatin vs pravastatin): 0.6617
- OR (SNP x treatment interaction) (rs7684899, allele C, ADD, Imputed, atorvastatin vs pravastatin): 0.617
- OR (SNP x treatment interaction) (rs7684899, allele C, DOM, Imputed, atorvastatin vs pravastatin): 0.5176
- OR (SNP x treatment interaction) (rs7701604, allele G, ADD, Imputed, atorvastatin vs pravastatin): 0.9741
- OR (SNP x treatment interaction) (rs7701604, allele G, DOM, Imputed, atorvastatin vs pravastatin): 1.136
- OR (SNP x treatment interaction) (rs7703676, allele C, ADD, Imputed, atorvastatin vs pravastatin): 0.9741
- OR (SNP x treatment interaction) (rs7703676, allele C, DOM, Imputed, atorvastatin vs pravastatin): 1.136
- OR (SNP x treatment interaction) (rs7708491, allele C, REC, Imputed, atorvastatin vs pravastatin): 1.179
- OR (SNP x treatment interaction) (rs7711358, allele A, DOM, Imputed, atorvastatin vs pravastatin): 0.593
- OR (SNP x treatment interaction) (rs7724761, allele T, REC, Imputed, atorvastatin vs pravastatin): 1.207
- OR (SNP x treatment interaction) (rs7762993, allele A, ADD, Imputed, atorvastatin vs pravastatin): 1.066
- OR (SNP x treatment interaction) (rs7762993, allele A, DOM, Imputed, atorvastatin vs pravastatin): 1.079
- OR (SNP x treatment interaction) (rs7767265, allele G, ADD, Imputed, atorvastatin vs pravastatin): 1.18
- OR (SNP x treatment interaction) (rs7768128, allele G, REC, Imputed, atorvastatin vs pravastatin): 0.3066
- OR (SNP x treatment interaction) (rs7773151, allele C, DOM, Genotyped, atorvastatin vs pravastatin): 1.038
- OR (SNP x treatment interaction) (rs7773210, allele A, DOM, Genotyped, atorvastatin vs pravastatin): 1.038
- OR (SNP x treatment interaction) (rs7843510, allele G, DOM, Genotyped, atorvastatin vs pravastatin): 0.9929
- OR (SNP x treatment interaction) (rs7939893, allele C, ADD, Imputed, atorvastatin vs pravastatin): 0.6916
- OR (SNP x treatment interaction) (rs7939893, allele C, DOM, Imputed, atorvastatin vs pravastatin): 0.506
- OR (SNP x treatment interaction) (rs7944513, allele T, REC, Imputed, atorvastatin vs pravastatin): 1.787
- OR (SNP x treatment interaction) (rs7949720, allele G, ADD, Imputed, atorvastatin vs pravastatin): 1.485
- OR (SNP x treatment interaction) (rs7949720, allele G, DOM, Imputed, atorvastatin vs pravastatin): 1.52
- OR (SNP x treatment interaction) (rs7955901, allele C, ADD, Imputed, atorvastatin vs pravastatin): 0.7285
- OR (SNP x treatment interaction) (rs7955901, allele C, DOM, Imputed, atorvastatin vs pravastatin): 0.7139
- OR (SNP x treatment interaction) (rs7956274, allele T, ADD, Imputed, atorvastatin vs pravastatin): 0.7156
- OR (SNP x treatment interaction) (rs7956274, allele T, DOM, Imputed, atorvastatin vs pravastatin): 0.7031
- OR (SNP x treatment interaction) (rs7957932, allele G, ADD, Imputed, atorvastatin vs pravastatin): 0.7234
- OR (SNP x treatment interaction) (rs7957932, allele G, DOM, Imputed, atorvastatin vs pravastatin): 0.6888
- OR (SNP x treatment interaction) (rs7999518, allele A, REC, Imputed, atorvastatin vs pravastatin): 0.4462
- OR (SNP x treatment interaction) (rs8026245, allele G, REC, Imputed, atorvastatin vs pravastatin): 1.888
- OR (SNP x treatment interaction) (rs8060725, allele A, ADD, Genotyped, atorvastatin vs pravastatin): 0.6772
- OR (SNP x treatment interaction) (rs8103016, allele A, ADD, Genotyped, atorvastatin vs pravastatin): 1.223
- OR (SNP x treatment interaction) (rs8104182, allele G, ADD, Imputed, atorvastatin vs pravastatin): 1.298
- OR (SNP x treatment interaction) (rs8104182, allele G, DOM, Imputed, atorvastatin vs pravastatin): 1.4
- OR (SNP x treatment interaction) (rs8129461, allele G, ADD, Imputed, atorvastatin vs pravastatin): 0.3726
- OR (SNP x treatment interaction) (rs8129461, allele G, DOM, Imputed, atorvastatin vs pravastatin): 0.3187
- OR (SNP x treatment interaction) (rs8130021, allele G, ADD, Imputed, atorvastatin vs pravastatin): 0.4152
- OR (SNP x treatment interaction) (rs8130021, allele G, DOM, Imputed, atorvastatin vs pravastatin): 0.3565
- OR (SNP x treatment interaction) (rs9293464, allele T, REC, Imputed, atorvastatin vs pravastatin): 1.207
- OR (SNP x treatment interaction) (rs9295154, allele G, DOM, Genotyped, atorvastatin vs pravastatin): 1.463
- OR (SNP x treatment interaction) (rs9310221, allele A, DOM, Imputed, atorvastatin vs pravastatin): 0.8966
- OR (SNP x treatment interaction) (rs9327555, allele T, DOM, Imputed, atorvastatin vs pravastatin): 0.5934
- OR (SNP x treatment interaction) (rs9403367, allele C, DOM, Imputed, atorvastatin vs pravastatin): 1.038
- OR (SNP x treatment interaction) (rs9419608, allele G, REC, Imputed, atorvastatin vs pravastatin): 0.5885
- OR (SNP x treatment interaction) (rs9426437, allele T, DOM, Imputed, atorvastatin vs pravastatin): 1.067
- OR (SNP x treatment interaction) (rs9454967, allele G, DOM, Imputed, atorvastatin vs pravastatin): 0.9744
- OR (SNP x treatment interaction) (rs9635511, allele T, DOM, Imputed, atorvastatin vs pravastatin): 0.8692
- OR (SNP x treatment interaction) (rs9812206, allele G, ADD, Imputed, atorvastatin vs pravastatin): 1.042
- OR (SNP x treatment interaction) (rs9812206, allele G, DOM, Imputed, atorvastatin vs pravastatin): 1.042
- OR (SNP x treatment interaction) (rs9813552, allele G, ADD, Imputed, atorvastatin vs pravastatin): 1.042
- OR (SNP x treatment interaction) (rs9813552, allele G, DOM, Imputed, atorvastatin vs pravastatin): 1.077
- OR (SNP x treatment interaction) (rs9815037, allele T, DOM, Imputed, atorvastatin vs pravastatin): 1.083
- OR (SNP x treatment interaction) (rs9825349, allele A, DOM, Imputed, atorvastatin vs pravastatin): 1.083
- OR (SNP x treatment interaction) (rs9840756, allele A, ADD, Imputed, atorvastatin vs pravastatin): 0.9995
- OR (SNP x treatment interaction) (rs9840756, allele A, DOM, Imputed, atorvastatin vs pravastatin): 1.031
